“Also recorded” adds a separate entry of the source.
Experiments:
[1] = test system: GM03665 cells (fibroblasts from a subject with Friedreich's ataxia); assay: RSL-3 Toxicity Assay (RSL-3 Assay); type: cell-based, human; conditions: for EC50: Homo sapiens, Fibroblast
From the text: Example 14: RSL-3 Toxicity Assay (RSL-3 Assay)
This assay has been adapted from: Hinman, A., Holst, C. R., Latham, J. C., Bruegger, J. J., Ulas, G., McCusker, K. P., Amagata, A., Davis, D., Hoff, K. G., Kahn-Kirby, A. H., Kim, V., Kosaka, Y., Lee, E., Malone, S. A., Mei, J. J., Richards, S. J., Rivera, V., Miller, G., Trimmer, J. K., Shrader, W. D., “Vitamin E hydroquinone is an endogenous regulator of ferroptosis via redox control of 15-lipoxygenase”, (2018) PLoS ONE 13(8): e0201369.
In brief, GM03665 cells (Coriell Institute) were seeded in 96-well plates (Sarstedt) in DMEM cell culture media containing 10% Fetal Bovine serum and 1% Penicillin-Streptomycin (Pen-Strep) antibiotic mix at the amount of 2×10^4/mL (100 μL or 2×10^3 cells per well). Cells were left to rest overnight at 37° C. in a humidified atmosphere with 5% CO2 to allow attachment of the cells to the culture plate. Test compounds were prepared as DMSO stocks (10 mM) and were serially diluted in cell culture media to obtain 2× working solutions. Cell media was discarded and replaced by 50 μL of test compound solutions or cell media with vehicle for control wells. Within 15 minutes, 2× working solution (4 μM) of 1S,3R-RSL-3 (CAS #1219810-16-8, Sigma-Aldrich) (diluted from 5 mM DMSO stock in cell culture media) was added. Final reaction volume was 100 μL and final DMSO concentration in reaction was kept below 0.2% (v/v) and equal in all wells. Final RSL-3 concentration was 2 μM and test compound final concentrations in reaction were up to 1000 nM. After 24 hours of incubation cell viability was assessed by MTT test. MTT (Sigma-Aldrich) solution 1 mg/mL in IX PBS (pH=7.4) was prepared 1 hour before the assay and filtered through Filtropur S 0.2 filters (Sarstedt). Cell media with test compounds was discarded and 100 μL of MTT solution was added to cells. The plates were incubated for 2 hours at +37° C. Thereafter, the MTT solution was removed and 100 μL of isopropanol was added to dissolve sediment. Absorption at 570 and 650 nm was measured using Hidex Sense microplate reader.
Compounds A and B and idebenone were not examined in this assay. The data presented in Table 1 indicates omaveloxolone was not active in this assay but that vatiquinone was active.
Discussion—Both BSO and RSL-3 are frequently utilized to induce the regulated cell death pathway known as ferroptosis. Ferroptosis is thought to require the joint activity of iron catalyzed oxidative stress and lipid peroxidation and has been described in cell and animal models of multiple neurodegenerative diseases, including Friedreich's Ataxia, Huntington Disease, Parkinson Disease and Alzheimer's Disease. […] Of note, the results for Compounds C-I and K were favorable with respect to inhibition of ferroptotic cell death when either BSO or RSL3 were used as initiating stimulus, differentiating these compounds from omaveloxolone and idebenone.

HepG2 cells = assay: Rotenone Oxygraph Assay (high-resolution respirometry of intact HepG2 cells); type: cell-based, human; conditions: for activation at 10 µM: Homo sapiens
Procedure: Example 15: Rotenone Oxygraph Assay (High-Resolution Respirometry of Intact HepG2 Cells)
The Oxygraph-2k (O2k, OROBOROS INSTRUMENTS, Austria) was used for measurements of respiration of intact cells. The respirometry was performed in Dulbecco's Modified Eagle Medium (DMEM) high glucose without supplements. All experiments were performed at 37° C.
HepG2 cells (ATCC collection code HB-8065™) were cultured in 10 cm^2 culture dishes in DMEM high glucose medium supplemented with 10% fetal bovine serum (FBS) and 100 units/mL penicillin and 100 μg/mL streptomycin until approximately 90% confluence was reached. Immediately prior to performing the respirometric assay, the cells were washed with media without FBS, trypsinized and resuspended in DMEM high glucose without FBS.
The final concentration of intact cells in the O2k-chamber was 0.5-10^6/mL. After stabilization of respiration, the Complex I inhibitor, rotenone, at 1 μM final concentration was added to inhibit electron flux via Complex I. Then, compound to be tested was added at 10 μM final concentration, and the change in respiration rate of intact cells was monitored. […]

[2] = GM03665 cells, RSL-3 2 μM, 24 hours, MTT
[3] = intact HepG2 cells, rotenone 1 μM, compound 10 μM, increase in respiration rate

| SMILES | protection against RSL-3 toxicity (in words) [1] | RSL-3 Assay EC50 [1, 2] | Complex I by-pass activity in Rotenone Oxygraph Assay (in words) (HepG2 cells) | Rotenone Oxygraph Assay % Increase (HepG2 cells; [3]) | EC50 [1, 2] [nM] | activation at 10 µM (HepG2 cells; [3]) [%] |
| --- | --- | --- | --- | --- | --- | --- |
| CC1(C)CC[C@]2(NC(=O)C(C)(F)F)CC[C@]3(C)[C@H](C(=O)C=C4[C@@]5(C)C=C(C#N)C(=O)C(C)(C)[C@@H]5CC[C@]43C)[C@@H]2C1 [Omaveloxolone, reference compound] | not active | Inactive | inactive | Inactive | – | – |
| COC1=C(OC)C(=O)C(CCCCF)=C(C)C1=O [Compound J, 2-(4-fluorobutyl)-5,6-dimethoxy-3-methylcyclohexa-2,5-diene-1,4-dione] | essentially inactive | – | not that effective; also recorded: least active | – | > 1000 | 21.8 |
| COC1=C(OC)C(=O)C(CCCCCCCCCC(F)(F)F)=C(C)C1=O [Compound C, 2,3-dimethoxy-5-methyl-6-(10,10,10-trifluorodecyl)cyclohexa-2,5-diene-1,4-dione] | – | – | effective in rescuing cells | – | 110 | 63.9 |

— patent US12037350B2, “Compositions and methods for the prevention and/or treatment of mitochondrial disease, including Friedreich's ataxia” (Stealth BioTherapeutics Inc., priority 2020, dated 2024)
